Assay results published in publication PMC11659888, “Structural Evidence for DUF512 as a Radical S-Adenosylmethionine Cobalamin-Binding Domain” (ACS Bio & Med Chem Au, 2024).

How the values were obtained:
pfDUF512 [1] = molecular target: T1, pfDUF512 (Pyrococcus furiosus, UniProt Q8U2I5); test: X-ray crystal structure; type: binding; details: 5 mM SAH in crystallisation, anoxic, with [4Fe-4S], cobalamin and 5'-dA; poor density for ribosyl and methionyl moieties
T1 construct: gene PF0849; full length, 358 residues (1-357 modelled); E. coli, SUMO tag cut with Ulp1, one extra N-terminal His left; monomer; [4Fe-4S]
T1 sequence (Q8U2I5 1-357): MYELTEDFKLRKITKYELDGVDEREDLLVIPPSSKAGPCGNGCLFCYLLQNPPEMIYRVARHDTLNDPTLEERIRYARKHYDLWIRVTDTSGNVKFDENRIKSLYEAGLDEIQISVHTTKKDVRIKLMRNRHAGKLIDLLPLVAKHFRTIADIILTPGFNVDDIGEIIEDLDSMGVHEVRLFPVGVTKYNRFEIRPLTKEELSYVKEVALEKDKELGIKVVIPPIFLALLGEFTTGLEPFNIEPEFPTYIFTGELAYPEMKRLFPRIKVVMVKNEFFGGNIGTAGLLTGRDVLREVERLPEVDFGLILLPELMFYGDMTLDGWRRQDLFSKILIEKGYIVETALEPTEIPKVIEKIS

pfDUF512 [2] = molecular target: T1, pfDUF512; test: methylation of bound cobalamin, MeCbl and […]'-dA detected; type: biochemical; details: titanium(III) citrate, 5 min
acDUF512 = molecular target: T2, acDUF512 (Acinetobacter sp. CAG:196_36_41, UniProt Z9P1A2K5F3); test: methylation of bound cobalamin, MeCbl, SAH and […]'-dA quantified; type: biochemical; details: titanium(III) citrate, 5 min
T2 construct: full-length gene, E. coli, SUMO tag cut with Ulp1; monomer; FeS cluster
T2 sequence (Z9P1A2K5F3 1-422): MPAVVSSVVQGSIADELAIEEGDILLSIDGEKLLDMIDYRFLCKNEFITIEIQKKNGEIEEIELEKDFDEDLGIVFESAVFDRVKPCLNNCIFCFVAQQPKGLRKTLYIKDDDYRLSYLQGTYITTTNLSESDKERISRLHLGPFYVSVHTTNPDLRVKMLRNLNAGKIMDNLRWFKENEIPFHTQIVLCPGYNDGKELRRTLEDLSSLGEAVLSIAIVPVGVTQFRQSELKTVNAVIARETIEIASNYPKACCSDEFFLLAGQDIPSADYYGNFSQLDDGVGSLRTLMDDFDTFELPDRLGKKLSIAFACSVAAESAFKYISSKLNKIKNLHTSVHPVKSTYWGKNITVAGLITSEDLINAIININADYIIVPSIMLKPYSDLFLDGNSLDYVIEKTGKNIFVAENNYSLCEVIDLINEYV

csDUF512 = molecular target: T3, csDUF512 (Clostridium sporogenes, UniProt Z9WP26CAS3); test: as above; type: biochemical; details: titanium(III) citrate, 5 min
T3 construct: full length, 444 residues (1-443 modelled); E. coli, SUMO tag cut with Ulp1; monomer; [4Fe-4S]; codon-optimized gene
T3 sequence (Z9WP26CAS3 1-443): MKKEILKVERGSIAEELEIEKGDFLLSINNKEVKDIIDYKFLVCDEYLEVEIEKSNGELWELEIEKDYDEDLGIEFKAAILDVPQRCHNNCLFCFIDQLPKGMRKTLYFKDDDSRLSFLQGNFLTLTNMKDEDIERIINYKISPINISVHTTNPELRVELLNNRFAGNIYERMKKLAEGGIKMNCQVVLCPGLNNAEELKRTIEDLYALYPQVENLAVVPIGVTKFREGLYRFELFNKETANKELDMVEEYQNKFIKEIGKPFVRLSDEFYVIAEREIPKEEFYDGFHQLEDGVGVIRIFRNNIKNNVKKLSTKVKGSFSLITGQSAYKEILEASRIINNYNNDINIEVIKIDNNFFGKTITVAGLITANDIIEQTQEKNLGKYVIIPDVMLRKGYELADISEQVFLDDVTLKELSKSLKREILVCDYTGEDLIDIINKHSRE

Row | Compound | X-ray crystal structure (pfDUF512 [1]) | methylation of bound cobalamin, MeCbl and 5'-dA detected (pfDUF512 [2]) | methylation of bound cobalamin, MeCbl, SAH and 5'-dA quantified (acDUF512) | methylation of bound cobalamin, MeCbl, SAH and 5'-dA quantified (csDUF512)
1 | Nc1ncnc2c1ncn2[C@@H]1O[C@H](CSCC[C@H](N)C(=O)O)[C@@H](O)[C@H]1O [SAH, S-adenosylhomocysteine] | pfDUF512 was crystallized under anoxic conditions in the presence of SAH | – | – | –
2 | C[S+](CC[C@H](N)C(=O)O)C[C@H]1O[C@@H](n2cnc3c(N)ncnc32)[C@H](O)[C@@H]1O (stereo partly shown) [SAM, S-adenosylmethionine] | – | Upon incubating the four DUF512 proteins with SAM and titanium(III) citrate | Upon incubating the four DUF512 proteins with SAM and titanium(III) citrate | Upon incubating the four DUF512 proteins with SAM and titanium(III) citrate
